# Measurements published in PubChem BioAssay (NCI).
#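 Five concentrations, 48 hours, 96-well plates. TGI denotes the concentration required for complete inhibition of growth.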
# Legend:
# Test in all cases: inhibition of tumour cell growth, NCI panel, 48 h
# [1] = system: SNB-75 CNS
# [2] = system: UACC-257 melanoma
# [3] = system: ACHN renal
# [4] = system: SK-MEL-2 melanoma
# [5] = system: SR leukemia
# [6] = system: HT29 colon
# [7] = system: TK-10 renal
# [8] = system: UACC-62 melanoma
# [9] = system: OVCAR-8 ovarian
# [10] = system: SW-620 colon
# [11] = system: SN12C renal
# [12] = system: NCI-H522 lung
# [13] = system: NCI-H460 lung
# [14] = system: OVCAR-3 ovarian
# [15] = system: HL-60(TB) leukemia
# [16] = system: LXFL 529 NSCLC
# [17] = system: OVCAR-5 ovarian
# [18] = system: KM12 colon
# [19] = system: NCI-H23 lung
# [20] = system: SK-MEL-5 melanoma
# [21] = system: EKVX NSCLC
# [22] = system: MOLT-4 leukemia
# [23] = system: HOP-18 NSCLC
# [24] = system: UO-31 renal
# [25] = system: M19-MEL melanoma
# [26] = system: SNB-78 CNS
# [27] = system: HOP-62 NSCLC
# [28] = system: KM20L2 colon
# [29] = system: HCC-2998 colon
# [30] = system: MALME-3M melanoma
# [31] = system: CCRF-CEM leukemia
# [32] = system: HOP-92 NSCLC
# [33] = system: LOX IMVI melanoma
# [34] = system: K-562 leukemia
# [35] = system: U251 CNS
# [36] = system: HCT-15 colon
# [37] = system: OVCAR-4 ovarian
# [38] = system: A549 NSCLC
# [39] = system: SF-539 CNS
# [40] = system: DLD-1 colon
# [41] = system: HCT-116 colon
# [42] = system: SK-OV-3 ovarian
# [43] = system: SK-MEL-28 melanoma
# [44] = system: M14 melanoma
# [45] = system: SF-295 CNS
# [46] = system: RXF 393 renal
# [47] = system: BT-549 breast
# [48] = system: PC-3 prostate
# [49] = system: MCF7 breast
# [50] = system: IGROV1 ovarian
# [51] = system: SF-268 CNS
# [52] = system: NCI/ADR-RES ovarian
# [53] = system: MDA-N
# [54] = system: 786-0 renal
# [55] = system: NCI-H226 lung
# [56] = system: CAKI-1 renal
# [57] = system: MDA-MB-231 breast
# [58] = system: DU-145 prostate
# [59] = system: MDA-MB-435
# [60] = system: SNB-19 CNS
# [61] = system: HS 578T breast
# [62] = system: RPMI-8226 leukemia
# [63] = system: T-47D breast
# [64] = system: COLO 205 colon
# [65] = system: A498 renal
# [66] = system: DMS 273 small cell lung
# [67] = system: DMS 114 small cell lung
smiles,measurement,setting,value
COc1ccc(/C=c2\sc3n(c2=O)CCN=3)cc1,TGI,[1],> 100 µM
same,TGI,[2],> 100 µM
same,TGI,[3],> 100 µM
same,TGI,[4],> 100 µM
same,TGI,[5],> 100 µM
same,TGI,[6],> 100 µM
same,TGI,[7],> 100 µM
same,TGI,[8],> 100 µM
same,TGI,[9],> 100 µM
same,TGI,[10],> 100 µM
same,TGI,[11],> 100 µM
same,TGI,[12],> 100 µM
same,TGI,[13],> 100 µM
same,TGI,[14],> 100 µM
same,TGI,[15],> 100 µM
same,TGI,[16],> 100 µM
same,TGI,[17],> 100 µM
same,TGI,[18],> 100 µM
same,TGI,[19],> 100 µM
same,TGI,[20],> 100 µM
same,TGI,[21],> 100 µM
same,TGI,[22],> 100 µM
same,TGI,[23],> 100 µM
same,TGI,[24],> 100 µM
same,TGI,[25],> 100 µM
same,TGI,[26],> 100 µM
same,TGI,[27],> 100 µM
same,TGI,[28],> 100 µM
same,TGI,[29],> 100 µM
same,TGI,[30],> 100 µM
same,TGI,[31],> 100 µM
same,TGI,[32],95.8 µM
same,TGI,[33],> 100 µM
same,TGI,[34],> 100 µM
same,TGI,[35],> 100 µM
same,TGI,[36],> 100 µM
same,TGI,[37],> 100 µM
same,TGI,[38],> 100 µM
same,TGI,[39],> 100 µM
same,TGI,[40],> 100 µM
same,TGI,[41],> 100 µM
same,TGI,[42],> 100 µM
same,TGI,[43],> 100 µM
same,TGI,[44],> 100 µM
same,TGI,[45],> 100 µM
same,TGI,[46],> 100 µM
Cc1ccc(NC(=O)c2ccc(OP(=O)(O)Nc3ccc(C)cc3)cc2)cc1,TGI,[47],> 100 µM
same,TGI,[48],> 100 µM
same,TGI,[49],> 100 µM
same,TGI,[1],> 100 µM
same,TGI,[2],> 100 µM
same,TGI,[3],> 100 µM
same,TGI,[4],> 100 µM
same,TGI,[5],> 100 µM
same,TGI,[6],> 100 µM
same,TGI,[7],> 100 µM
same,TGI,[8],> 100 µM
same,TGI,[9],> 100 µM
same,TGI,[50],> 100 µM
same,TGI,[51],> 100 µM
same,TGI,[10],> 100 µM
same,TGI,[11],> 100 µM
same,TGI,[12],> 100 µM
same,TGI,[13],> 100 µM
same,TGI,[52],> 100 µM
same,TGI,[53],> 100 µM
same,TGI,[14],> 100 µM
same,TGI,[15],> 100 µM
same,TGI,[17],> 100 µM
same,TGI,[18],> 100 µM
same,TGI,[19],> 100 µM
same,TGI,[20],> 100 µM
same,TGI,[54],> 100 µM
same,TGI,[55],> 100 µM
same,TGI,[21],> 100 µM
same,TGI,[22],> 100 µM
same,TGI,[24],> 100 µM
same,TGI,[56],> 100 µM
same,TGI,[57],> 100 µM
same,TGI,[27],> 100 µM
same,TGI,[29],> 100 µM
same,TGI,[30],> 100 µM
same,TGI,[58],> 100 µM
same,TGI,[59],> 100 µM
same,TGI,[31],> 100 µM
same,TGI,[32],> 100 µM
same,TGI,[60],> 100 µM
same,TGI,[33],> 100 µM
same,TGI,[61],> 100 µM
same,TGI,[62],> 100 µM
same,TGI,[34],> 100 µM
same,TGI,[35],> 100 µM
same,TGI,[36],> 100 µM
same,TGI,[37],> 100 µM
same,TGI,[63],> 100 µM
same,TGI,[38],> 100 µM
same,TGI,[39],> 100 µM
same,TGI,[41],> 100 µM
same,TGI,[64],> 100 µM
same,TGI,[42],> 100 µM
same,TGI,[65],> 100 µM
same,TGI,[43],> 100 µM
same,TGI,[44],> 100 µM
same,TGI,[45],> 100 µM
same,TGI,[46],> 100 µM
CCOC(=O)C1=C(C(=O)OCC)C2c3ccccc3C=CN2C(C(=O)OCC)=C(SC)S1 (configuration not stated),TGI,[1],> 100 µM
same,TGI,[2],> 100 µM
same,TGI,[3],> 100 µM
same,TGI,[4],> 100 µM
same,TGI,[5],> 100 µM
same,TGI,[6],> 100 µM
same,TGI,[7],> 100 µM
same,TGI,[8],> 100 µM
same,TGI,[9],> 100 µM
same,TGI,[50],> 100 µM
same,TGI,[51],> 100 µM
same,TGI,[10],> 100 µM
same,TGI,[11],> 100 µM
same,TGI,[12],> 100 µM
same,TGI,[13],> 100 µM
same,TGI,[14],> 100 µM
same,TGI,[15],> 100 µM
same,TGI,[16],> 100 µM
same,TGI,[17],> 100 µM
same,TGI,[19],> 100 µM
same,TGI,[20],> 100 µM
same,TGI,[54],> 100 µM
same,TGI,[55],> 100 µM
same,TGI,[21],> 100 µM
same,TGI,[22],> 100 µM
same,TGI,[24],> 100 µM
same,TGI,[56],> 100 µM
same,TGI,[25],> 100 µM
same,TGI,[26],> 100 µM
same,TGI,[27],> 100 µM
same,TGI,[28],> 100 µM
same,TGI,[29],> 100 µM
same,TGI,[30],> 100 µM
same,TGI,[31],> 100 µM
same,TGI,[60],> 100 µM
same,TGI,[33],> 100 µM
same,TGI,[66],> 100 µM
same,TGI,[62],> 100 µM
same,TGI,[67],> 100 µM
same,TGI,[34],> 100 µM
same,TGI,[35],> 100 µM
same,TGI,[36],> 100 µM
same,TGI,[38],> 100 µM
same,TGI,[39],> 100 µM
same,TGI,[40],> 100 µM
same,TGI,[41],> 100 µM
same,TGI,[64],> 100 µM
same,TGI,[42],> 100 µM
same,TGI,[43],> 100 µM
same,TGI,[44],> 100 µM
same,TGI,[45],> 100 µM
same,TGI,[46],> 100 µM
